According to patent US8242275B2, “Bicyclic pyrazole compounds as antibacterial agents” (Janssen Pharmaceutica NV, priority 2005, dated 2012):
≈ marks a conversion by molar mass, not a printed value.

What was measured:
[1] = tested on: E. coli KL-16 (GSC strain 4245); assay: In vitro antibacterial activity (MIC assay), broth microdilution; format: cell-based; conditions: Escherichia coli
Experimental: (§1) Minimal inhibitory concentration (MIC) has been an indicator of in vitro antibacterial activity widely used in the art. The in vitro antibacterial activity of the compounds was determined by the broth microdilution method described by the National Committee for Clinical Laboratory Standards (NCCLS) in the NCCLS Document M7-A5, Vol. 20, No. 2, “Methods for Dilution Antimicrobial Susceptibility Test for Bacteria that Grow Aerobically—Fifth Edition”, which is incorporated herein by reference.
(§2) In this method, an aliquot of test compound from an 11-point series of 2-fold serial dilutions of compounds in 100% DMSO was added to wells in microdilution plates. The test organisms were prepared by adjusting the turbidity of actively growing broth cultures so that the final concentration of test organism after addition to wells with or without compounds was approximately 5×10^5 CFU/mL.
(§3) Following inoculation of the microdilution plates, the plates were incubated at 35° C. for 16-24 h and then scored for bacterial growth. […] The amount of growth in the wells containing the test compound was compared with the amount of growth in the growth-control wells (no test compound used) in each plate, and with the amount of growth in the wells containing control compounds (such as ciprofloxacin). Compounds of the present invention were tested against several bacterial strains. The MIC values (in μg/mL) are presented in Table 1 for Gram-negative (E. coli KL-16 (GSC strain 4245); data marked as (*) was obtained with E. coli ATCC25922) and Gram-positive bacteria (S. aureus ATCC13709; S. pneumoniae ATCC49619).

S. aureus ATCC13709 = assay: as above; format: cell-based; conditions: Staphylococcus aureus, ATCC13709; read-out: S. aureus ATCC13709 MIC
Experimental: as §1, §2, §3

S. pneumoniae ATCC49619 = assay: as above; format: cell-based; conditions: Streptococcus pneumoniae, ATCC49619; read-out: S. pneumoniae ATCC49619 MIC
Experimental: as §1, §2, §3

E. coli DNA gyrase = biological target: T1, E. coli DNA gyrase (Escherichia coli, UniProt P0AES4+P0AES6); assay: DNA gyrase inhibition assay (supercoiling); format: biochemical; conditions: E. coli DNA gyrase supercoiling, visual inspection of gels; read-out: DNA Gyrase IC50 (converted)
T1 construct: purchased John Innes Enterprises Ltd. (John Innes Centre, UK)
Experimental: Inhibition of the supercoiling activity of E. coli DNA gyrase was determined using enzymes, buffers and substrates received from John Innes Enterprises Ltd. (John Innes Centre, UK). The reactions were performed according to the manufacturer's directions, with the following modifications.
DNA supercoiling reactions were carried out in a total reaction volume of 20 μL containing 250 ng of relaxed pBR322, 35 mM Tris-HCl (pH 7.5), 24 mM KCl, 4 mM MgCl2, 2 mM dithiothreitol, 1.8 mM spermidine, 1 mM ATP, 6.5% glycerol and 100 μg/mL albumin. Compounds diluted in 10% DMSO were added to the reaction mixture to reach a final concentration of 0.5% DMSO. Enzyme was diluted to […] in a solution of 50 mM Tris-HCl (pH 7.5), 100 mM KCl, 2 mM dithiothreitol, 1 mM EDTA, and 50% glycerol. Diluted enzyme (0.2 unit) was added to each reaction.
The reactions were incubated at 37° C. for 30 min. The reactions were then cooled to 0° C., followed by addition of 3 μL of 40% glycerol, 100 mM Tris-HCl (pH 7.5), 50 mM EDTA, 0.5% SDS and 0.1% bromophenol blue. Samples were separated on 1.0% agarose gels. Gels were stained with Ethidium bromide and photographed with a Stratagene Eagle Eye II.

T1 sequence (P0AES4 whole entry, one chain of several): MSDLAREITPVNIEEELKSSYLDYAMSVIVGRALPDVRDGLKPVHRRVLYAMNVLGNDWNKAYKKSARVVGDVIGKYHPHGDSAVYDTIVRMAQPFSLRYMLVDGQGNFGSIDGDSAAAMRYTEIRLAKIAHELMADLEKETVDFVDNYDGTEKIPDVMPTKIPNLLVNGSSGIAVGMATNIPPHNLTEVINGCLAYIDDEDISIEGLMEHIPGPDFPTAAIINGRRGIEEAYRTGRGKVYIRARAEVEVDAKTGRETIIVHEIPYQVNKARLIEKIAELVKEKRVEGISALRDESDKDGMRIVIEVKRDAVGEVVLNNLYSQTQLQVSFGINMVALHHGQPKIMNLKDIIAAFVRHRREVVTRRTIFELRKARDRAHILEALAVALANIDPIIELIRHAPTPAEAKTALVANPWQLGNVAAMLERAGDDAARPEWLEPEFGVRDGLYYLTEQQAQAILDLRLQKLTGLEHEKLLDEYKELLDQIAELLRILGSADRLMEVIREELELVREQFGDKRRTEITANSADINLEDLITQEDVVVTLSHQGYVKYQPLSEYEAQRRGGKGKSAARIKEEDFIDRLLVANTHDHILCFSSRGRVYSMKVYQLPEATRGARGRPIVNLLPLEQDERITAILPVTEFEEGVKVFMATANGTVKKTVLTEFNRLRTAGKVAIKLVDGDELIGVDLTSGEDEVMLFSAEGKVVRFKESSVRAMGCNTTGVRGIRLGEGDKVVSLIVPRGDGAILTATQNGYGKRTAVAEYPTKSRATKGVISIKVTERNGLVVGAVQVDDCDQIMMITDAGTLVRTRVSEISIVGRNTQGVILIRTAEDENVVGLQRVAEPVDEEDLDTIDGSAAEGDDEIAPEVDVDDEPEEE

Row | SMILES | MIC [1] | MIC (S. aureus ATCC13709) | MIC (S. pneumoniae ATCC49619) | IC50 (E. coli DNA gyrase)
1 | COc1ccc2nccc(-n3cc4c(n3)CCC(NC(=O)c3cc5cc(F)c(F)cc5[nH]3)C4)c2c1 (centres unmarked) [Example 74, 5,6-Difluoro-1H-indole-2-carboxylic acid [2-(6-methoxy-quinolin-4-yl)-4,5,6,7-tetrahydro-2H-indazol-5-yl]-amide] | > 128 µg/mL | 1 µg/mL (≈ 2.11 µM) | 8 µg/mL (≈ 16.9 µM) | 4.22 µM
2 | COc1ccc2nccc(-n3cc4c(n3)CCC(NC(=O)/C=C/c3ccc(F)c(F)c3)C4)c2n1 (centres unmarked) [Example 93, 3-(3,4-Difluoro-phenyl)-N-[2-(6-methoxy-[1,5]naphthyridin-4-yl)-4,5,6,7-tetrahydro-2H-indazol-5-yl]-acrylamide] | > 128 µg/mL | 0.25 µg/mL (≈ 0.542 µM) | 16 µg/mL (≈ 34.7 µM) | > 34.7 µM
3 | COc1ccc2nccc(-n3cc4c(n3)CCC(NC(=O)/C=C/c3cc(F)cc(F)c3)C4)c2n1 (centres unmarked) [Example 11, 3-(3,5-Difluoro-phenyl)-N-[2-(6-methoxy-[1,5]naphthyridin-4-yl)-4,5,6,7-tetrahydro-2H-indazol-5-yl]-acrylamide] | > 128 µg/mL | < 0.125 µg/mL | 16 µg/mL (≈ 34.7 µM) | 4.33 µM
4 | COc1ccc2nccc(-n3cc4c(n3)CCC(NCc3cc5c(cc3Cl)OCO5)C4)c2n1 (centres unmarked) [Example 105, N-((6-chlorobenzo[d][1,3]dioxol-5-yl)methyl)-2-(6-methoxy-1,5-naphthyridin-4-yl)-4,5,6,7-tetrahydro-2H-indazol-5-amine] | > 128 µg/mL | 0.5 µg/mL (≈ 1.08 µM) | 4 µg/mL (≈ 8.62 µM) | 4.31 µM
5 | COc1ccc2nccc(-n3cc4c(n3)CCC(NCCCc3ccc(Cl)c(Cl)c3)C4)c2n1 (centres unmarked) [Example 48, [3-(3,4-Dichloro-phenyl)-propyl]-[2-(6-methoxy-[1,5]naphthyridin-4-yl)-4,5,6,7-tetrahydro-2H-indazol-5-yl]-amine] | 32 µg/mL (≈ 66.3 µM) | 0.25 µg/mL (≈ 0.518 µM) | 1 µg/mL (≈ 2.07 µM) | > 66.3 µM
6 | O=C1CSc2ccc(CNC3CCc4c(cnn4-c4cc(C(F)(F)F)nc5ccccc45)C3)cc2N1 (centres unmarked) [Example 139, 6-{[1-(2-Trifluoromethyl-quinolin-4-yl)-4,5,6,7-tetrahydro-1H-indazol-5-ylamino]-methyl}-4H-benzo[1,4]thiazin-3-one] | > 128 µg/mL | 8 µg/mL (≈ 15.7 µM) | 32 µg/mL (≈ 62.8 µM) | > 31.4 µM
7 | COc1ccc2nccc(-n3cc4c(n3)CCC(NC(=O)/C=C/c3cccc([N+](=O)[O-])c3)C4)c2n1 (centres unmarked) [Example 14, N-[2-(6-Methoxy-[1,5]naphthyridin-4-yl)-4,5,6,7-tetrahydro-2H-indazol-5-yl]-3-(3-nitro-phenyl)-acrylamide] | > 128 µg/mL | 1 µg/mL (≈ 2.13 µM) | 16 µg/mL (≈ 34 µM) | 2.13 µM
8 | COc1ccc2nccc(-n3cc4c(n3)CCC(NC(=O)c3cc5c(cc3Cl)SCC(=O)N5)C4)c2n1 (centres unmarked) [Example 6, 7-Chloro-3-oxo-3,4-dihydro-2H-benzo[1,4]thiazine-6-carboxylic acid [2-(6-methoxy-[1,5]naphthyridin-4-yl)-4,5,6,7-tetrahydro-2H-indazol-5-yl]-amide] | 2 µg/mL (≈ 3.84 µM) | < 0.125 µg/mL | 4 µg/mL (≈ 7.68 µM) | 0.23 µM
9 | COc1ccc2nccc(-n3cc4c(n3)CC(NC(=O)c3cc5c(cc3F)SCC(=O)N5)CC4)c2c1 (centres unmarked) [Example 28, 7-Fluoro-3-oxo-3,4-dihydro-2H-benzo[1,4]thiazine-6-carboxylic acid [2-(6-methoxy-quinolin-4-yl)-4,5,6,7-tetrahydro-2H-indazol-6-yl]-amide] | 16 µg/mL (≈ 31.8 µM) | 0.25 µg/mL (≈ 0.496 µM) | 4 µg/mL (≈ 7.94 µM) | 3.97 µM
10 | COc1ccc2nccc(-n3cc4c(n3)CCC(NC(=O)c3ccc(Br)s3)C4)c2c1 (centres unmarked) [Example 72, 5-Bromo-thiophene-2-carboxylic acid [2-(6-methoxy-quinolin-4-yl)-4,5,6,7-tetrahydro-2H-indazol-5-yl]-amide] | > 128 µg/mL | 2 µg/mL (≈ 4.14 µM) | > 128 µg/mL | > 33.1 µM
11 | COc1ccc2nccc(-n3cc4c(n3)CCC(NC(=O)c3cc5ccccc5o3)C4)c2c1 (centres unmarked) [Example 25, Benzofuran-2-carboxylic acid [2-(6-methoxy-quinolin-4-yl)-4,5,6,7-tetrahydro-2H-indazol-5-yl]-amide] | > 128 µg/mL | 1 µg/mL (≈ 2.28 µM) | 8 µg/mL (≈ 18.2 µM) | > 36.5 µM
12 | COc1ccc2nccc(-n3cc4c(n3)CCC(NC(=O)/C=C/c3ccccn3)C4)c2n1 (centres unmarked) [Example 95, N-[2-(6-Methoxy-[1,5]naphthyridin-4-yl)-4,5,6,7-tetrahydro-2H-indazol-5-yl]-3-pyridin-2-yl-acrylamide] | > 128 µg/mL | 2 µg/mL (≈ 4.69 µM) | 8 µg/mL (≈ 18.8 µM) | > 37.5 µM
13 | COc1ccc2nccc(-n3cc4c(n3)CCC(NC(=O)C(=O)c3cc5ccccc5[nH]3)C4)c2c1 (centres unmarked) [Example 26, 2-(1H-Indol-2-yl)-N-[2-(6-methoxy-quinolin-4-yl)-4,5,6,7-tetrahydro-2H-indazol-5-yl]-2-oxo-acetamide] | > 128 µg/mL | 0.25 µg/mL (≈ 0.537 µM) | 2 µg/mL (≈ 4.3 µM) | > 34.4 µM
14 | COc1ccc2nccc(-n3cc4c(n3)CCC(NCc3cc(F)c5c(c3)OCCO5)C4)c2n1 (centres unmarked) [Example 101, (8-Fluoro-2,3-dihydro-benzo[1,4]dioxin-6-ylmethyl)-[2-(6-methoxy-[1,5]naphthyridin-4-yl)-4,5,6,7-tetrahydro-2H-indazol-5-yl]-amine] | 4 µg/mL (≈ 8.67 µM) | 0.125 µg/mL (≈ 0.271 µM) | 1 µg/mL (≈ 2.17 µM) | 0.542 µM
15 | COc1ccc2nccc(-n3cc4c(n3)CCC(NCCCc3ccc(C)cc3)C4)c2n1 (centres unmarked) [Example 49, [2-(6-Methoxy-[1,5]naphthyridin-4-yl)-4,5,6,7-tetrahydro-2H-indazol-5-yl]-(3-p-tolyl-propyl)-amine] | 128 µg/mL (≈ 299 µM) | < 0.125 µg/mL | 0.5 µg/mL (≈ 1.17 µM) | 7.02 µM
16 | COc1ccc2nccc(-n3cc4c(n3)CCC(NCc3cc(F)c5c(c3)OCCO5)C4)c2c1 (centres unmarked) [Example 100, (8-Fluoro-2,3-dihydro-benzo[1,4]dioxin-6-ylmethyl)-[2-(6-methoxy-quinolin-4-yl)-4,5,6,7-tetrahydro-2H-indazol-5-yl]-amine] | 16 µg/mL (≈ 34.7 µM) | 0.25 µg/mL (≈ 0.543 µM) | 0.5 µg/mL (≈ 1.09 µM) | 1.09 µM
17 | CCN(CC)c1ccc(CNC2CCc3nn(-c4ccnc5ccc(OC)nc45)cc3C2)cc1 (centres unmarked) [Example 85, (4-Diethylamino-benzyl)-[2-(6-methoxy-[1,5]naphthyridin-4-yl)-4,5,6,7-tetrahydro-2H-indazol-5-yl]-amine] | 64 µg/mL (≈ 140 µM) | 8 µg/mL (≈ 17.5 µM) | 8 µg/mL (≈ 17.5 µM) | 4.38 µM
18 | COc1ccc2nccc(-n3cc4c(n3)CCC(NCCCc3ccccc3)C4)c2n1 (centres unmarked) [Example 45, [2-(6-Methoxy-[1,5]naphthyridin-4-yl)-4,5,6,7-tetrahydro-2H-indazol-5-yl]-(3-phenyl-propyl)-amine] | 128 µg/mL (≈ 310 µM) | 0.25 µg/mL (≈ 0.605 µM) | < 0.125 µg/mL | 1.93 µM
19 | O=C1CSc2cc(F)c(C(=O)NC3CCc4nn(-c5cccc6ccccc56)cc4C3)cc2N1 (centres unmarked) [Example 33, 7-Fluoro-3-oxo-3,4-dihydro-2H-benzo[1,4]thiazine-6-carboxylic acid (2-naphthalen-1-yl-4,5,6,7-tetrahydro-2H-indazol-5-yl)-amide] | > 128 µg/mL | 1 µg/mL (≈ 2.12 µM) | 8 µg/mL (≈ 16.9 µM) | 4.23 µM
20 | COc1ccc2nccc(-n3cc4c(n3)CCC(NC(=O)c3ccc5c(c3)NC(=O)CO5)C4)c2c1 (centres unmarked) [Example 116, 3-Oxo-3,4-dihydro-2H-benzo[1,4]oxazine-6-carboxylic acid [2-(6-methoxy-quinolin-4-yl)-4,5,6,7-tetrahydro-2H-indazol-5-yl]-amide] | 2 µg/mL (≈ 4.26 µM) | 0.125 µg/mL (≈ 0.266 µM) | 4 µg/mL (≈ 8.52 µM) | 0.532 µM
